# Test results taken from US9249123B2, “Pyridinones/pyrazinones, method of making, and method of use thereof” (Genentech, Inc., priority 2010, dated 2016).
# Test system: CD86 surface expression on CD19+/7AAD- total mouse splenocytes stimulated with IgM
# Assay: CD86 Inhibition Assay
# Type: cell-based
# Details: Splenocyte; Balb/c mouse splenocytes, IgM stimulation, 24 hr
# Description: A CD86 Inhibition assay can be conducted on Formula I compounds for the inhibition of B cell activity using total mouse splenocytes purified from spleens of 8-16 week old Balb/c mice (Example 905).
# A generalized procedure for a standard assay for the inhibition of B cell activity that can be used to test Formula I compounds is as follows. Total mouse splenocytes are purified from spleens of 8-16 week old Balb/c mice by red blood cell lysis (BD Pharmingen #555899). Testing compounds are diluted to 0.5% DMSO and incubated with 1.25×10^6 splenocytes in a final volume of 200 μl in flat clear bottom plates (Falcon 353072) for 60 min at 37° C. Cells are then stimulated with the addition of 15 μg/ml IgM (Jackson ImmunoResearch 115-006-020), and incubated for 24 hr at 37° C., 5% CO2. Following the 24 hr incubation, cells are transferred to conical bottom clear 96-well plates and pelleted by centrifugation at 1200×g×5 min. Cells are preblocked by CD16/CD32 (BD Pharmingen #553142), followed by triple staining with CD19-FITC (BD Pharmingen #553785), CD86-PE (BD Pharmingen #553692), and 7AAD (BD Pharmingen #51-68981E). Cells are sorted on a BD FACSCalibur and gated on the CD19^+/7AAD^− population. The levels of CD86 surface expression on the gated population is measured versus test compound concentration. Exemplary results are in Table 3.
row,SMILES,EC50 [nM]
1,"Cn1cc(-c2cccc(N3Cc4cc(C(C)(C)C)sc4C3=O)c2CO)nc(Nc2ccc(C3CCNCC3)cc2)c1=O [Compound 152, 5-(3-{2-tert-butyl-6-oxo-4H,5H,6H-thieno[2,3-c]pyrrol-5-yl}-2-(hydroxymethyl)phenyl)-1-methyl-3-{[4-(piperidin-4-yl)phenyl]amino}-1,2-dihydropyrazin-2-one]",306
2,"Cc1cc(Nc2cc(-c3cccc(N4Cc5cc(C(C)(C)C)sc5C4=O)c3CO)cn(C)c2=O)n[nH]1 [Compound 157, 5-(3-{2-tert-butyl-6-oxo-4H,5H,6H-thieno[2,3-c]pyrrol-5-yl}-2-(hydroxymethyl)phenyl)-1-methyl-3-[(5-methyl-1H-pyrazol-3-yl)amino]-1,2-dihydropyridin-2-one]",229
3,"CN1CCN(c2ccc(Nc3cc(-c4cccc(N5Cc6cc(C(C)(C)C)sc6C5=O)c4CO)cn(C)c3=O)nc2)CC1 [Compound 146, 5-(3-{2-tert-butyl-6-oxo-4H,5H,6H-thieno[2,3-c]pyrrol-5-yl}-2-(hydroxymethyl)phenyl)-1-methyl-3-{[5-(4-methylpiperazin-1-yl)pyridin-2-yl]amino}-1,2-dihydropyridin-2-one]",28.9
4,"Cn1cc(-c2cccc(N3Cc4cc(C(C)(C)C)sc4C3=O)c2CO)cc(Nc2cc3n(n2)CCOC3)c1=O [Compound 154, 5-(3-{2-tert-butyl-6-oxo-4H,5H,6H-thieno[2,3-c]pyrrol-5-yl}-2-(hydroxymethyl)phenyl)-1-methyl-3-{4H,6H,7H-pyrazolo[3,2-c][1,4]oxazin-2-ylamino}-1,2-dihydropyridin-2-one]",149
5,"Cc1c(-c2cn(C)c(=O)c(Nc3ccc(C4C(=O)N(C)CCN4C)cc3)n2)cccc1N1Cc2cc(C(C)(C)C)ccc2C1=O (centres unmarked) [Compound 127, 5-tert-butyl-2-[3-(6-{[4-(1,4-dimethyl-3-oxopiperazin-2-yl)phenyl]amino}-4-methyl-5-oxo-4,5-dihydropyrazin-2-yl)-2-methylphenyl]-2,3-dihydro-1H-isoindol-1-one]",498
6,"Cn1cc(-c2cccc(N3Cc4cc(C(C)(C)C)ccc4C3=O)c2CO)nc(Nc2cnn(C3CC3)c2)c1=O [Compound 109, 5-tert-butyl-2-(3-(6-(1-cyclopropyl-1H-pyrazol-4-ylamino)-4-methyl-5-oxo-4,5-dihydropyrazin-2-yl)-2-(hydroxymethyl)phenyl) isoindolin-1-one]",113
7,"Cn1cc(-c2cccc(N3Cc4cc(C(C)(C)C)sc4C3=O)c2CO)nc(Nc2ccc(N3CCOCC3)cc2)c1=O [Compound 160, 5-(3-{2-tert-butyl-6-oxo-4H,5H,6H-thieno[2,3-c]pyrrol-5-yl}-2-(hydroxymethyl)phenyl)-1-methyl-3-{[4-(morpholin-4-yl)phenyl]amino}-1,2-dihydropyrazin-2-one]",153

# Other lines, results leading:
row,EC50 [nM],SMILES
1,154,"Cn1cc(-c2cccc(N3Cc4cc(C(C)(C)C)ccc4C3=O)c2CO)cc(Nc2ccc(C3CNC3)cn2)c1=O [Compound 117, 2-(3-(5-(5-(azetidin-3-yl)pyridin-2-ylamino)-1-methyl-6-oxo-1,6-dihydropyridin-3-yl)-2-(hydroxymethyl)phenyl)-5-tert-butylisoindolin-1-one]"
2,74,"Cn1cc(-c2cccc(N3Cc4cc(C(C)(C)C)ccc4C3=O)c2CO)cc(Nc2ccncn2)c1=O [Compound 107, 5-tert-butyl-2-(2-(hydroxymethyl)-3-(1-methyl-6-oxo-5-(pyrimidin-4-ylamino)-1,6-dihydropyridin-3-yl)phenyl)isoindolin-1-one]"
3,775,"Cn1cc(-c2ccc(F)c(N3Cc4cc(C(C)(C)C)sc4C3=O)c2CO)cc(Nc2ccncn2)c1=O [Compound 141, 5-(3-{2-tert-butyl-6-oxo-4H,5H,6H-thieno[2,3-c]pyrrol-5-yl}-4-fluoro-2-(hydroxymethyl)phenyl)-1-methyl-3-(pyrimidin-4-ylamino)-1,2-dihydropyridin-2-one]"

# Test system: production of CD69 by B lymphocytes in human whole blood activated with goat F(ab')2 anti-human IgM
# Assay: CD69 Whole Blood Assay
# Type: cell-based
# Details: Lymphocyte, anti-IgM stimulation, 20 hours, CD69 positive of CD20 positive cells
# From the text: A CD69 Whole Blood Assay can be conducted on Formula I compounds to determine the ability of compounds to inhibit the production of CD69 by B lymphocytes in human whole blood activated by crosslinking surface IgM with goat F(ab′)2 anti-human IgM (Example 907).
# Human blood is obtained from healthy volunteers, with the following restrictions: 1 week drug-free, non-smokers. Blood (approximately 20 mls to test 8 compounds) is collected by venipuncture into Vacutainer® (Becton, Dickinson and Co.) tubes with sodium heparin.
# Solutions of Formula I compounds at 10 mM in DMSO are diluted 1:10 in 100% DMSO, then are diluted by three-fold serial dilutions in 100% DMSO for a ten point dose-response curve. The compounds are further diluted 1:10 in PBS and then an aliquot of 5.5 μl of each compound is added in duplicate to a 2 ml 96-well plate; 5.5 μl of 10% DMSO in PBS is added as control and no-stimulus wells. Human whole blood—HWB (100 μl) is added to each well. After mixing the plates are incubated at 37° C., 5% CO2, 100% humidity for 30 minutes. Goat F(ab′)2 anti-human IgM (10 μl of a 500 μg/ml solution, 50 μg/ml final) is added to each well (except the no-stimulus wells) with mixing and the plates are incubated for an additional 20 hours. At the end of the 20 hour incubation, samples are incubated with fluorescent labeled antibodies for 30 minutes, at 37° C., 5% CO2, 100% humidity. Include induced control, unstained and single stains for compensation adjustments and initial voltage settings. Samples are then lysed with PharM Lyse™ (BD Biosciences Pharmingen) according to the manufacturer's instructions. Samples are then transferred to a 96 well plate suitable to be run on the BD Biosciences HTS 96 well system on the LSRII machine. Data acquired and Mean Fluorescence Intensity values were obtained using BD Biosciences DIVA Software. Results are initially analyzed by FACS analysis software (Flow Jo). […] The IC50 values are calculated by Prism version 5, using a nonlinear regression curve fit.
row,SMILES,IC50 [nM]
1,"Cn1cc(-c2cccc(N3Cc4cc(C(C)(C)C)sc4C3=O)c2CO)cc(Nc2ccc(N3CCOCC3)cn2)c1=O [Compound 151, 5-(3-{2-tert-butyl-6-oxo-4H,5H,6H-thieno[2,3-c]pyrrol-5-yl}-2-(hydroxymethyl)phenyl)-1-methyl-3-{[5-(morpholin-4-yl)pyridin-2-yl]amino}-1,2-dihydropyridin-2-one]",112
2,"Cn1cc(-c2cccc(N3Cc4cc(C(C)(C)C)sc4C3=O)c2CO)cc(Nc2ccn(CCO)n2)c1=O [Compound 139, 5-(3-{2-tert-butyl-6-oxo-4H,5H,6H-thieno[2,3-c]pyrrol-5-yl}-2-(hydroxymethyl)phenyl)-3-{[1-(2-hydroxyethyl)-1H-pyrazol-3-yl]amino}-1-methyl-1,2-dihydropyridin-2-one]",42.6
3,"Cn1cc(-c2cccc(N3Cc4cc(C(C)(C)C)sc4C3=O)c2CO)nc(Nc2ccc(N3CCOCC3)cc2)c1=O [Compound 160, 5-(3-{2-tert-butyl-6-oxo-4H,5H,6H-thieno[2,3-c]pyrrol-5-yl}-2-(hydroxymethyl)phenyl)-1-methyl-3-{[4-(morpholin-4-yl)phenyl]amino}-1,2-dihydropyrazin-2-one]",116

# The next lines start with the values.
row,IC50 [nM],SMILES
1,605,"Cn1cc(-c2cccc(N3Cc4cc(C(C)(C)C)ccc4C3=O)c2CO)cc(Nc2ccncn2)c1=O [Compound 107, 5-tert-butyl-2-(2-(hydroxymethyl)-3-(1-methyl-6-oxo-5-(pyrimidin-4-ylamino)-1,6-dihydropyridin-3-yl)phenyl)isoindolin-1-one]"
2,1100,"Cn1cc(-c2cccc(N3Cc4cc(C(C)(C)C)ccc4C3=O)c2CO)cc(Nc2cc(C3CC3)n[nH]2)c1=O [Compound 110, 5-tert-butyl-2-(3-(5-(3-cyclopropyl-1H-pyrazol-5-ylamino)-1-methyl-6-oxo-1,6-dihydropyridin-3-yl)-2-(hydroxymethyl)phenyl) isoindolin-1-one]"
3,157,Cn1cc(-c2cccc(N3Cc4cc(C(C)(C)C)ccc4C3=O)c2CO)cc(Nc2ccn(CCO)n2)c1=O [Compound 119]
4,185,"CN1CCN(c2ccc(Nc3cc(-c4cccc(N5Cc6cc(C(C)(C)C)ccc6C5=O)c4CO)cn(C)c3=O)nn2)CC1 [Compound 122, 5-tert-butyl-2-(2-(hydroxymethyl)-3-(1-methyl-5-(6-(4-methylpiperazin-1-yl)pyridazin-3-ylamino)-6-oxo-1,6-dihydropyridin-3-yl)phenyl)isoindolin-1-one]"
